Measured values: patent US20190201526A1, “Methods and Compositions for Treating Cancers by Inhibiting Estrogen Signaling in Myeloid-Derived Suppressor Cells” (The Wistar Institute of Anatomy and Biology, priority 2016, published 2019)

What was measured:
[1] = system: G- or M-MDSCs isolated from 6-day bone marrow cultures; test: MDSC suppression assay (Cell Trace Violet dilution of T cells); type: cell-based, mouse; settings: 6-day BM cultures
Method: (§1) Mouse MDSCs were expanded from mouse bone marrow harvested by flushing tibias and femurs with media. Following red blood cell lysis, 2.5×10^6 cells were cultured in 10 mL of RPMI+10% FBS augmented with recombinant mouse 40 ng/mL GM-CSF^+40 ng/mL IL6 (Peprotech) and incubated at 37° C., 5% CO2 3 or 6 days. Vehicle, estradiol, or MPP treatments were added as described above. For 6 day cultures, cytokines and estrogen treatments were refreshed on day 3. Following incubation, floating and adherent cells were collected, and MMDSCs and G-MDSCs were isolated via MDSC purification kit according to manufacturer's protocol for further analysis. Human MDSCs were expanded from human lung cancer patient bone marrow acquired as single cell suspensions (see above). Briefly, 2×10^6 cells were cultured in 3 mL of IMDM^+ 15% FBS supplemented with recombinant human 40 ng/mL GM-CSF^+ 40 ng/mL IL6 (Peprotech) and treated with Vehicle, 2 μM, or 10 μM MPP (see above) for 4 days. Cells were subsequently harvested and analyzed by flow cytometry.
Naïve WT T cells were purified from spleens as described and labeled with the proliferation tracker Cell Trace Violet according to manufacturer protocol. T cell proliferation was stimulated by adding anti-CD3/CD28 mouse T-activator beads (Thermo) at a 1:1 T cell to bead ratio according to manufacturer protocol. […]

[2] = system: STAT3; test: pSTAT3 in MDSCs from tumor-bearing mice (Western blot); type: in vivo, mouse; settings: spleens of advanced ovarian cancer-bearing mice treated with E2, compared to oophorectomized mice (FIG. 6A)
Method: (§2) Female 5-8 week old wild-type (WT) C57BL/6 and congenic Ly5.1 mice were purchased from the Charles River Frederick facility. Esr1 knockout (ERα KO) were purchased from The Jackson Laboratory. Ovariectomies were performed by Charles River staff at 5 weeks of age. Mice were treated with vehicle (0.1% ethanol) or 10 μM estradiol (USP grade, Sigma) drinking water refreshed every 3-4 days. All mice were maintained in pathogen-free barrier facilities. All experiments were conducted according to the approval of the Wistar Institute Institutional Animal Care and Use Committee.
Cells were lysed in RIPA buffer supplemented with protease inhibitors, phosphatase inhibitors, and Na3VO4 (Thermo) according to manufacturer protocol. Protein quantification was determined via BCA assay, and protein was run on TGX 4-15% gradient gels. Following transfer, PVDF membranes were blocked with 5% BSA in TBS+ 0.05% Tween-20. The following primary antibodies were added to membranes, as indicated, and incubated overnight: Jak2 (rabbit clone#D2E12), Stat3 (clone#124H6) and pStat3 (Tyr705)(rabbit clone#D3A7), from Cell Signaling; and ERα (Thermo, clone#TE111.5D11) and beta-actin (Sigma, clone#AC-15).
Following secondary staining with HRP-conjugated anti-mouse or rabbit IgG, membranes were developed using ECL prime (GE Healthcare).

[3] = system: STAT3; test: pSTAT3 and total STAT3 in in vitro BM-derived MDSC cultures (Western blot); type: cell-based, mouse; settings: 100 ng/mL E2 or 2 μM MPP (FIG. 6B)
Method: as §1
(§3) Cells were lysed in RIPA buffer supplemented with protease inhibitors, phosphatase inhibitors, and Na3VO4 (Thermo) according to manufacturer protocol. Protein quantification was determined via BCA assay, and protein was run on TGX 4-15% gradient gels. Following transfer, PVDF membranes were blocked with 5% BSA in TBS+ 0.05% Tween-20. […]

[4] = system: IL6Rα chain, gp130; test: Surface expression of IL6Rα and gp130 on BM-derived MDSCs (flow cytometry); type: cell-based, mouse
Method: (§4) Flow cytometry was performed by staining cells with Zombie Yellow viability dye, blocking with anti-CD16/32 (2.4G2), and staining for 30 min at 4° C. with the following anti-mouse antibodies: CD45 (30-F11), CD45.1 (A20), CD45.2 (104), CD11c (N418), I-A/I-E (M5/114.15.2), CD3 (145-2C11), Ly6G (1A8), Ly6C (HK1.4), gp130 (4H1B35), IL6R (D7715A7), Gr1 (RB6-4C5), CD4 (RM4-5), CD8b (YTS156.7.7), CD44 (IM7), CD69 (H1.2F3), CD11b (M1/70); or anti-human antibodies: CD45 (HI30), CD11c (Bul5), HLA-DR-APC/Cy7 (L243), CD15 (HI98), CD14 (HCD14), CD11b (ICRF44), CD33 (WM53), CD19 (HIB19). Samples were subsequently run using an LSRII and analyzed using FlowJo.
as §1, with “Human MDSCs were expanded from human lung cancer patient bone marrow acquired as single cell suspensions (see above). Briefly, 2×10^6 cells were cultured in 3 mL of IMDM^+ 15% FBS supplemented with recombinant human 40 ng/mL GM-CSF^+ 40 ng/mL IL6 (Peprotech) and treated with Vehicle, 2 μM, or 10 μM MPP (see above) for 4 days.” left out

[5] = system: ID8-Defb29/Vegf-α cells; test: Cell line proliferation by MTS assay; type: cell-based, mouse; settings: ID8-Defb29/Vegf-α cells in vitro, increasing doses, steroid-free media; MCF-7 as positive control (FIG. 1D)
Source text: (§5) ID8 cells were retrovirally transduced to express Defb29 and Vegf-α (Conejo-Garcia, et al. “Tumor-infiltrating dendritic cell precursors recruited by a beta-defensin contribute to vaculogenesis under the influence of Vegf-A.” Nat. Med. (2004) 10:950-8). MCF-7, MDA-MB-231, and LLC1 cells were obtained from American Type Culture Collection. Peritoneal tumors were initiated in mice by injecting 3X106 ID8-Defb29/Vegf-α cells intraperitoneal (i.p.). Intraperitoneal cells were harvested from tumorbearing mice by flushing the peritoneal cavity with PBS. Cells were maintained in vitro at 37° C., 5% CO2 by culturing in RPMI+10% FBS or steroid free media (SFR10), which was comprised of phenol red-free RPMI+10% charcoal-stripped FBS. Cells were treated in vitro with vehicle (0.1% DMSO) or varying concentrations of estradiol, fulvestrant, or Methylpiperidino pyrazole (MPP) purchased from Cayman Chemical. Cell line proliferation was determined by MTS assay (Promega), and increased/decreased proliferation relative to vehicle was calculated.

[6] = system: Lewis Lung Carcinomas (LLC); test: Lewis Lung Carcinoma (LLC) tumor progression in mice; type: in vivo, mouse; settings: estradiol supplementation, WT mice (FIG. 3A)
Method: as §2
ID8 cells were retrovirally transduced to express Defb29 and Vegf-α (Conejo-Garcia, et al. “Tumor-infiltrating dendritic cell precursors recruited by a beta-defensin contribute to vaculogenesis under the influence of Vegf-A.” Nat. Med. (2004) 10:950-8). MCF-7, MDA-MB-231, and LLC1 cells were obtained from American Type Culture Collection. Peritoneal tumors were initiated in mice by injecting 3X106 ID8-Defb29/Vegf-α cells intraperitoneal (i.p.). Intraperitoneal cells were harvested from tumorbearing mice by flushing the peritoneal cavity with PBS. […] Cell line proliferation was determined by MTS assay (Promega), and increased/decreased proliferation relative to vehicle was calculated.

[7] = system: Jak2; test: Jak2 RNA and protein expression in BM-derived MDSCs; type: cell-based, mouse
Method: as §1, §3

[8] = system: ID8-Defb29/Vegf-α peritoneal tumors; test: Intraperitoneal ID8-Defb29/Vegf-α ovarian tumor model (survival, flow cytometry, ELISpot); type: in vivo, mouse
Method: as §2, §5
For generating mixed BM chimeras, mononuclear BM cells were collected from adult agematched CD45.1 (congenic) WT or CD45.2 Esr1^−/− donor mice, and 1-2×10^6 cells were mixed in a 1:1 ratio and retro-orbitally injected into lethally irradiated (˜950 rad) adult recipients. Mixed chimeras were analyzed after 7-8 weeks as indicated.
as §4
Dendritic cells (BMDCs) were differentiated by culturing WT mouse bone marrow for 7 days with 20 ng/mL GM-CSF (Peprotech 315-03), refreshed every 3 days. BMDCs were subsequently primed with tumor antigen by pulsing for 24 hours with irradiated (100 Gy+30 minutes UV) ID8-Defb29/Vegf-α cells at a ratio of 10:1. ELISPOT assay was performed by stimulating 1X105 cells obtained from peritoneal wash with 1X104 antigen-primed BMDCs in a 96-well filter plate (Millipore MSIPS4510) coated with IFNγ capture antibody according to manufacturer's guidelines (eBioscience 88-3784-88). Following incubation at 37° C., 5% CO2 or 48 hours, positive spots were developed using Avidin-AP and BCIP-NBT substrate (R&D Systems SEL002).

[9] = system: metastatic solid tumors; settings: patients with metastatic solid tumors; Soliman, et al., Oncotarget 2014; cited from earlier work

Compound: C[C@]12CC[C@@H]3c4ccc(O)cc4CC[C@H]3[C@@H]1CC[C@@H]2O [estradiol]
- Inhibitory activity of M-MDSCs ([1]; 100 ng/mL E2 (FIG. 5C, bottom)): did not affect
- Immunosuppressive activity of G-MDSCs ([1]; 100 ng/mL E2 or 2 μM MPP (FIG. 5C, top)): more potently immunosuppressive
- Levels of pSTAT3Y705 in monocytic and granulocytic MDSCs [2]: significantly increased
- Phospho-STAT3 in M-MDSCs and G-MDSCs [3]: increased phospho-STAT3 levels
- Surface expression of the IL6Rα chain ([4]; BM-MDSCs (FIG. 6D, left)): did not elicit changes
- Surface expression of gp130 ([4]; BM-MDSCs (FIG. 6D, right)): did not elicit changes
- Proliferation relative to vehicle (response to treatment) [5]: fail to respond
- Malignant growth of LLC tumors [6]: accelerated malignant growth
- Survival of LLC tumor-bearing mice [6]: decreased survival
- Jak2 protein expression ([7]; BM-derived MDSCs (FIG. 6E, right)): reproducible Jak2 up-regulation
- Jak2 RNA expression ([7]; cytokine-induced bone marrow MDSCs of both lineages (FIG. 6E, left)): transcriptional up-regulation
- Tumor progression in irradiated mice reconstituted with wild-type bone marrow ([8]; E2 treatment, compared to mice reconstituted with ERα-deficient bone marrow (FIG. 4B)): tumors progress significantly faster
- IFN-γ ELISpot response of tumor-associated T cells to tumor antigens ([8]; T cells from E2-treated mice vs control and oophorectomized mice (FIG. 2C)): responded significantly worse than either group
- Inflammation at tumor (peritoneal) beds ([8]; ad libitum estradiol supplementation, tumor-bearing mice (FIG. 2A)): augmented inflammation
- Tumor progression in ERα KO hosts ([8]; estradiol supplementation, ERα KO mice (FIG. 4A)): failed to accelerate tumor progression
- Tumor progression in wild-type controls ([8]; estradiol supplementation, wild-type mice (FIG. 4A)): significant effects
- Proportions of CD44+ CD69+ tumor-associated CD4 and CD8 T-cells ([8]; estradiol-supplemented tumor-bearing mice (FIG. 2B)): decreases
- Percentage and total numbers of M-MDSC and G-MDSC ([8]; spleen and tumor beds of tumor-bearing mice (FIGS. 3B to 3E)): increased

Compound: Cn1cc(C[C@@H](N)C(=O)O)c2ccccc21 [Indoximod, 1-methyl-D-tryptophan]
- Activity in human clinical trials [9]: has shown activity
